Earlier results, collected in patent US20250017941A1, “METHODS OF TREATING NON-HODGKIN LYMPHOMA USING 2-(2,6-DIOXOPIPERIDIN-3-YL)-4-((2-FLUORO-4-((3-MORPHOLINOAZETIDIN-1-YL)METHYL)BENZYL)AMINO)ISOINDOLINE-1,3-DIONE” (Celgene Corporation, priority 2021, published 2025).
Read-outs that look alike come from different tables or passages of the source.

Legend:
[1] = system: adult patients with CD20-positive indolent non-Hodgkin lymphoma refractory to rituximab
[2] = system: patients with FL who had received 2 or more prior systemic therapies
[3] = tafasitamab in combination with lenalidomide, R/R DLBCL
[4] = tafasitamab in combination with lenalidomide, listed with the G3/4 events
[5] = 53 patients with EZH2 wild-type status, 800 mg orally twice daily

In the case of `Cn1c(CCCC(=O)O)nc2cc(N(CCCl)CCCl)ccc21` [bendamustine], the “PFS (primary endpoint)” value ([1]; median follow-up 21.9 months (obinutuzumab plus bendamustine) and 20.3 months (bendamustine monotherapy)) is listed as 14.9 months, the “Febrile neutropenia, occurrence” value ([1]; per arm) is listed as “uncommon” and the “Grade 3/4 anemia, patients” value ([1]; per arm) is listed as 8%. The “Grade 3/4 neutropenia, patients” value ([1]; per arm) was 26%, the “Grade 3/4 thrombocytopenia, patients” value ([1]; per arm) was 15% and the “Serious AEs, patients” value ([1]; per treatment group) was 33%. The “deaths due to adverse events, patients” value ([1]; per treatment group) was 6%.
In the case of “tafasitamab: anti-CD19 monoclonal antibody; results are for the combination with lenalidomide”, the “objective response rate (ORR)” value (patients with R/R DLBCL; tafasitamab 12 mg/kg intravenously in combination with lenalidomide 25 mg orally, R/R DLBCL, 81 participants) is listed as 60%, the “complete response (CR) rate” value (patients with R/R DLBCL; tafasitamab 12 mg/kg intravenously in combination with lenalidomide, R/R DLBCL, 81 participants) is listed as 34% and the “G3/4 febrile neutropenia, patients” value (patients with R/R DLBCL; [3]) is listed as 12%. For the same molecule, the “G3/4 neutropenia, patients” value (patients with R/R DLBCL; [3]) was 48%, the “Serious AEs, patients” value (patients with R/R DLBCL; [3]) was 52% and the “Serious AEs: febrile neutropenia, patients” value (patients with R/R DLBCL; [3]) was 6%. The “Serious AEs: pneumonia, patients” value (patients with R/R DLBCL; [3]) was 6%, the “median duration of response” value (patients with R/R DLBCL; [3]) was 21.7 months and the “anemia, patients” value (patients with R/R DLBCL; [4]) was 7%. For the same molecule, the “thrombocytopenia, patients” value (patients with R/R DLBCL; [4]) was 17% and the “most common adverse events (AEs) of all grades, frequency” value (patients with R/R DLBCL; tafasitamab in combination with lenalidomide, neutropenia, fatigue, anemia, diarrhea, thrombocytopenia, cough, pyrexia, peripheral edema, rash, decreased appetite) was at least 20%.
For `CCN(c1cc(-c2ccc(CN3CCOCC3)cc2)cc(C(=O)NCc2c(C)cc(C)[nH]c2=O)c1C)C1CCOCC1` [Tazemetostat, N-[(1,2-dihydro-4,6-dimethyl-2-oxo-3-pyridinyl)methyl]-5-[ethyl (tetrahydro-2H-pyran-4-yl)amino]-4-methyl-4′-(4-morpholinylmethyl)-[1,1′-biphenyl]-3-carboxamide], the “Grade 3/4 anemia, patients” value ([2]; 800 mg orally twice daily) is listed as 8%, the “Grade 3/4 neutropenia, patients” value ([2]; 800 mg orally twice daily) is listed as 7% and the “Grade 3/4 thrombocytopenia, patients” value ([2]; 800 mg orally twice daily) is listed as 7%. For the same molecule, the “Serious AEs, patients” value ([2]; 800 mg orally twice daily) was 30%, the CR rate ([2]; 42 patients with EZH2 mutated status, 800 mg orally twice daily) was 12% and the ORR ([2]; 42 patients with EZH2 mutated status, tazemetostat 800 mg orally twice daily) was 69%. For the same molecule, the CR rate [2, 5] was 4%, the ORR [2, 5] was 34% and the mDOR ([2]; EZH2 wild-type cohort, 800 mg orally twice daily) was 13 months. The “most common AEs of all grades, frequency” value ([2]; fatigue, upper respiratory tract infection, nausea, abdominal pain and musculoskeletal pain) was at least 20%, the “most common serious AEs, patients” value ([2]; general physical health deterioration, abdominal pain, pneumonia, sepsis and anemia) was “at least 2%” and the mDOR ([2]; patients with EZH2 mutated status, 800 mg orally twice daily) was 10.9 months.
